In US20260365670A1, “EGFR INHIBITORS AND USES THEREOF” (DIZAL (JIANGSU) PHARMACEUTICAL CO., LTD., priority 2022, published 2026):
Like-named read-outs stand apart in the source and are kept apart here.

How the values were obtained:
EGFR (d746-750 C797S) = molecular target: T1, EGFR (d746-750 C797S) (Homo sapiens, UniProt P00533, C797S/DEL746-750); assay: Inhibition of EGFR (d746-750 C797S) biochemical enzymatic activity (HTRF); details: 1 mM ATP
T1 construct: purchased signalchem
In short: (§1)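 HTRF kinase assay: each EGFR enzyme phosphorylated 1 μM biotinylated TK substrate with 1 mM ATP in buffer containing 5 mM MgCl2, 1 mM MnCl2, 0.01% CHAPS, 1 mM DTT, 0.5% DMSO. After 1 h at room temperature, EDTA detection mix stopped the reaction. IC50 came from a four-parameter logistic fit of the 665/615 nm ratio.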

EGFR Exon19Del = molecular target: T2, EGFR Exon19Del (Homo sapiens, UniProt P00533, DEL746-750); assay: Inhibition of EGFR Exon19Del biochemical enzymatic activity (HTRF); details: read-out: IC50 @Del19
T2 construct: purchased Carna Bio
In short: as §1

[1] = tested on: Ba/F3 cells expressing EGFR mutations; assay: Cell proliferation assay, Ba/F3 cells expressing EGFR mutations (CellTiter-Glo, 72 hours); type: cell-based
In short: (§2)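 Seed Ba/F3 at 5000 cells/well and PC-9 at 500 cells/well (10% FBS RPMI1640); incubate overnight; add compound dilution series; read a G0 plate; incubate; read G3; GI50 from best-fit curve.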

EGFR[T790M/C797S/L858R] = molecular target: T3, EGFR[T790M/C797S/L858R] (Homo sapiens, UniProt P00533, C797S/L858R/T790M); assay: Inhibition of EGFR[T790M/C797S/L858R] biochemical enzymatic activity (HTRF); details: 1 mM ATP
T3 construct: purchased Carna Bio
T3 sequence (P00533 25-1210 T790M/C797S/L858R): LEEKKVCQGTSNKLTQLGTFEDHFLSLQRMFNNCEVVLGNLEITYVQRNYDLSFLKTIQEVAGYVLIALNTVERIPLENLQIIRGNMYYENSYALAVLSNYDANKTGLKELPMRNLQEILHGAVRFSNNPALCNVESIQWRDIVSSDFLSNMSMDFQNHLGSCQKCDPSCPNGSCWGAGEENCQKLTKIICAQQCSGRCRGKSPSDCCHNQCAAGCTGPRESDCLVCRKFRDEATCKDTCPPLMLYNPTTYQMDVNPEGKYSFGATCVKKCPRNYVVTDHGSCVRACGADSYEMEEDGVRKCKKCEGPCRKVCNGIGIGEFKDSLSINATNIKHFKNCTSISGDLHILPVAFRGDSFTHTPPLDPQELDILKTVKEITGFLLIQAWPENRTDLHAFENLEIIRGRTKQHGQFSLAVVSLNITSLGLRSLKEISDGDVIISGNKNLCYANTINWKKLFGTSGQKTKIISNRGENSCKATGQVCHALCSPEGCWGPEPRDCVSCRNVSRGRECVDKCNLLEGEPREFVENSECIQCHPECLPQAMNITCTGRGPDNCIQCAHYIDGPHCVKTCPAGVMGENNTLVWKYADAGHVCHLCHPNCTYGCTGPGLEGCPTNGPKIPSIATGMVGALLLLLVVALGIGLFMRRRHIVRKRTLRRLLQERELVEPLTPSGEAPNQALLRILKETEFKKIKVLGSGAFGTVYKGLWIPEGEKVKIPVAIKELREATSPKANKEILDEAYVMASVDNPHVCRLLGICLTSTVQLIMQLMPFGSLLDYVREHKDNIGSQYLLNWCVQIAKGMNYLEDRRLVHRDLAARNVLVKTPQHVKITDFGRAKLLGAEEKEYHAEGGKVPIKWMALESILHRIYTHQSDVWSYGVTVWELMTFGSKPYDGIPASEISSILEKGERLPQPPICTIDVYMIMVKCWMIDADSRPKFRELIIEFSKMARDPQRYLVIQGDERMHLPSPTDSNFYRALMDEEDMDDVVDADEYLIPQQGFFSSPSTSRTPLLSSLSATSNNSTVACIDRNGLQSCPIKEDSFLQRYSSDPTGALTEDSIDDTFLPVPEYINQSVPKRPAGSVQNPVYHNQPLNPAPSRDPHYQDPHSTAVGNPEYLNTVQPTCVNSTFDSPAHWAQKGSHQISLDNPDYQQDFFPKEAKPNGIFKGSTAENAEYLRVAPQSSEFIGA
In short: as §1

EGFR L858R = molecular target: T4, EGFR L858R (Homo sapiens, UniProt P00533, L858R); assay: Inhibition of EGFR L858R biochemical enzymatic activity (HTRF); details: 1 mM ATP
T4 construct: purchased Carna Bio
T4 sequence (P00533 25-1210 L858R): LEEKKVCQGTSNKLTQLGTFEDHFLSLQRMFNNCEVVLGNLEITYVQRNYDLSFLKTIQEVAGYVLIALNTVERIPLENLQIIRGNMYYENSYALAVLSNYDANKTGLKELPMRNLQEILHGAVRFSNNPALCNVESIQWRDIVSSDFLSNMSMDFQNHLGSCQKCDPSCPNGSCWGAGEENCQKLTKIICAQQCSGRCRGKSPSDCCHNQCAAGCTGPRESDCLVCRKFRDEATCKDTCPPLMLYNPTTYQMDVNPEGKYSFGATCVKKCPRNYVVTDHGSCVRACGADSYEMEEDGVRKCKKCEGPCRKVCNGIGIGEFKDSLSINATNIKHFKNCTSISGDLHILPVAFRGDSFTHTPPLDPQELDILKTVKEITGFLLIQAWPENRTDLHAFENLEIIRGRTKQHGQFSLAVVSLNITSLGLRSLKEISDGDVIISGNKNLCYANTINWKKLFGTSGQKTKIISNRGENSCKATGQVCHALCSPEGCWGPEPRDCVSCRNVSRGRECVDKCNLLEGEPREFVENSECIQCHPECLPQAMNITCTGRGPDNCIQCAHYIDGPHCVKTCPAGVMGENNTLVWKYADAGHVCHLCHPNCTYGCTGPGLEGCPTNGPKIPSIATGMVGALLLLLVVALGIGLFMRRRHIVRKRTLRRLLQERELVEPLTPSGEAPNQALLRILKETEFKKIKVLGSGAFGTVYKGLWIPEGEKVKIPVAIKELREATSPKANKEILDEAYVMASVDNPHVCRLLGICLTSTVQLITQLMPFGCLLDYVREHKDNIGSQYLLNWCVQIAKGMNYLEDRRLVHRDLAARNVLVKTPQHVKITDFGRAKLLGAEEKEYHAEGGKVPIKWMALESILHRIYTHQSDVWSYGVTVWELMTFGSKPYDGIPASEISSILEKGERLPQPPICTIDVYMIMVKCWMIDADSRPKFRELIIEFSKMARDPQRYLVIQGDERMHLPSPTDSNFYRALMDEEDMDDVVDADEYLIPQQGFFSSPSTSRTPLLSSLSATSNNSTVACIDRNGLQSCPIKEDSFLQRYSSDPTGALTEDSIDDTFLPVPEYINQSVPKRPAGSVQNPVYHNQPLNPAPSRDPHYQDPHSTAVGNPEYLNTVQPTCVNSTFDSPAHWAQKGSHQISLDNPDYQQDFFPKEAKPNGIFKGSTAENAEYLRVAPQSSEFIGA
In short: as §1

EGFR Exon19Del/T790M = molecular target: T5, EGFR Exon19Del/T790M (Homo sapiens, UniProt P00533, DEL746-750/T790M); assay: Inhibition of EGFR Exon19Del/T790M biochemical enzymatic activity (HTRF); details: 1 mM ATP
T5 construct: purchased Carna Bio
T5 sequence (P00533 with tags, fused parts or gaps DEL746-750/T790M limits assumed): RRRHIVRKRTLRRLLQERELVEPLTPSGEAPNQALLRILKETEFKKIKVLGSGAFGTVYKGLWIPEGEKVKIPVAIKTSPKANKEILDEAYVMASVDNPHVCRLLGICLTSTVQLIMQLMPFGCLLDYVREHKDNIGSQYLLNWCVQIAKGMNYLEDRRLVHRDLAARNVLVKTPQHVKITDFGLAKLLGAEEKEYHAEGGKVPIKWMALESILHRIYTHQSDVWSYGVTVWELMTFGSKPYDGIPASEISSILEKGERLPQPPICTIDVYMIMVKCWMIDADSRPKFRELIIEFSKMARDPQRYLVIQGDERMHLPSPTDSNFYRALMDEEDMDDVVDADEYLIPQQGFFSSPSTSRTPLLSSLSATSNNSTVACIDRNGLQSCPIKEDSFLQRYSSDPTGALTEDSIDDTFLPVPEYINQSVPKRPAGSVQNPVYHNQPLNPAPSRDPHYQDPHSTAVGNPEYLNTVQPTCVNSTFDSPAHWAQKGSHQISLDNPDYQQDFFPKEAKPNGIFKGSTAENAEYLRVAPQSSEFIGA
In short: as §1

EGFR (C797S L858R) = molecular target: T6, EGFR (C797S L858R) (Homo sapiens, UniProt P00533, C797S/L858R); assay: Inhibition of EGFR (C797S L858R) biochemical enzymatic activity (HTRF); details: 1 mM ATP
T6 construct: purchased signalchem
In short: as §1

EGFR wild type = molecular target: T7, EGFR wild type (Homo sapiens, UniProt P00533); assay: Inhibition of EGFR wild type biochemical enzymatic activity (HTRF); details: 1 mM ATP
T7 construct: purchased Carna Bio
In short: as §1

EGFR L858R/T790M = molecular target: T8, EGFR L858R/T790M (Homo sapiens, UniProt P00533, L858R/T790M); assay: Inhibition of EGFR L858R/T790M biochemical enzymatic activity (HTRF); details: 1 mM ATP
T8 construct: purchased Carna Bio
T8 sequence (P00533 25-1210 T790M/L858R): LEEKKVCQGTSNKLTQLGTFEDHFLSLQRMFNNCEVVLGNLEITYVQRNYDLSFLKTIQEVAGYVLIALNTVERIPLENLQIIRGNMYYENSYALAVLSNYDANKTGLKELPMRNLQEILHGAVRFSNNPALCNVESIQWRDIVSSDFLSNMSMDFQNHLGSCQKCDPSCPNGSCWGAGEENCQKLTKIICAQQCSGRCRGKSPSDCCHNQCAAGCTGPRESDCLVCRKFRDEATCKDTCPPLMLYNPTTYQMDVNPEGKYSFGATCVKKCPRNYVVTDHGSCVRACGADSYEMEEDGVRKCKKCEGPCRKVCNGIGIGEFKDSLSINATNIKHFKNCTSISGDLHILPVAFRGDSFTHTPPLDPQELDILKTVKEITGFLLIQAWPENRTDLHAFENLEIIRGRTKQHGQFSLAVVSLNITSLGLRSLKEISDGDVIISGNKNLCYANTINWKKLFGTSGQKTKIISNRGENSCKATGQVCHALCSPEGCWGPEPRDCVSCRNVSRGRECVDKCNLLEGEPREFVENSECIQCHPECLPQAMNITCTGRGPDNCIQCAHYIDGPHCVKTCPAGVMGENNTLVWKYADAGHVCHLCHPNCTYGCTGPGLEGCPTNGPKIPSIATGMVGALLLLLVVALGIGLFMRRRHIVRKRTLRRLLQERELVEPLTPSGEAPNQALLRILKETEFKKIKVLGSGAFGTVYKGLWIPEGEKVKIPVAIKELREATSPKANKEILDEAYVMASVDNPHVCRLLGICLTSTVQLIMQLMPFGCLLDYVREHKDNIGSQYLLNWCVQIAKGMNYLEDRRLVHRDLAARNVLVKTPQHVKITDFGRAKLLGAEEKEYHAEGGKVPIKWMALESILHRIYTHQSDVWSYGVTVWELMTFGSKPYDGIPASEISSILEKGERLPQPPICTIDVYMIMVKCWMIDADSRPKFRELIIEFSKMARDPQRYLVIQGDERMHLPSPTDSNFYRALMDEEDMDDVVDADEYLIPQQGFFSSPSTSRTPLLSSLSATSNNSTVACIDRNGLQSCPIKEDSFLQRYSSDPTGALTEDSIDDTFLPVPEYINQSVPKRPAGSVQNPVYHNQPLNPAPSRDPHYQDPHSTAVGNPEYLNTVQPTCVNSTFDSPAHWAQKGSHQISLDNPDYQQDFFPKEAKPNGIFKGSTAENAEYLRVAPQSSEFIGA
In short: as §1

PC-9 = assay: Cell proliferation assay, PC-9 cells (CellTiter-Glo, 72 hours); type: cell-based; details: PC9 cells, read-out: GI50 PC9
In short: as §2

A-431 = assay: Cell proliferation assay, A-431 cells (GI50, Table 6); type: cell-based; details: Homo sapiens, A-431, A-431 cells
Method: [Worded in the source for another cell line; this cell line is reported under the same test.] Ba/F3 cells expressing EGFR mutations were seeded in 384-well plates at 5000 cells/well in RPMI1640 medium containing […]. PC-9 at 500 cells/well was seeded into 384-well plates in RPMI1640 medium with 10% FBS. After overnight incubation, the assay plates were dosed with compounds at a series of concentrations. Alongside dosing the assay plates, the day 0 plate was processed using CellTiter-Glo® Luminescent Cell Viability Assay (Promega) to measure the number of viable cells (G0). The assay plates were further incubated for 72 hours and the number of viable cells (G3) was measured. The percentage of proliferation was calculated as: […]=100×(G3 value of sample well−G0 value)/(G3 value of DMSO control−G0 value). The concentration of compound producing 50% proliferation inhibition (GI50) was further calculated in best-fit curves using XLFit software. N/A=not available.

[2] = molecular target: T9, EGFR[T790M/C797S/d746-750] (Homo sapiens, UniProt P00533, C797S/DEL746-750/T790M); assay: Inhibition of EGFR[T790M/C797S/d746-750] biochemical enzymatic activity (HTRF)
T9 construct: purchased Carna Bio
T9 sequence (P00533 with tags, fused parts or gaps DEL746-750/T790M/C797S limits assumed): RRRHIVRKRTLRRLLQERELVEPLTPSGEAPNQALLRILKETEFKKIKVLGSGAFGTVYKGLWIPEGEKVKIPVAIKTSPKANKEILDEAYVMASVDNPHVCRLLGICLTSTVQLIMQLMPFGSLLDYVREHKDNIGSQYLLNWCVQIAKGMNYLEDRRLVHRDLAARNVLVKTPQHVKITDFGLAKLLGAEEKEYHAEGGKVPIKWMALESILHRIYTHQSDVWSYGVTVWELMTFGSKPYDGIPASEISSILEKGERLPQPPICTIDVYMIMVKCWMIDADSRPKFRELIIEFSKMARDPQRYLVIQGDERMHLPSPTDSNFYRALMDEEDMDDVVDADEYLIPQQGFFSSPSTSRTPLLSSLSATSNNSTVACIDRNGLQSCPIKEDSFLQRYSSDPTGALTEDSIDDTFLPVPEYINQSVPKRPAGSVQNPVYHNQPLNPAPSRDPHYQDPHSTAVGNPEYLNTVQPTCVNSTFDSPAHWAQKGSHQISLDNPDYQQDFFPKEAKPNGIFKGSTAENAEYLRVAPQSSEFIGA
In short: as §1

[3] = EGFR (d746-750 C797S), 1 h at room temperature, read-out: IC50 @Del19-C797S
[4] = EGFR Exon19Del, 1 mM ATP, 1 h at room temperature
[5] = Mus musculus, BaF3, 72 h, BaF3 cells, EGFR DEL19 - C797S, read-out: GI50 DEL19 - C797S/BaF3
[6] = Mus musculus, BaF3, 72 h, BaF3 cells, EGFR DEL19 - T790-C797S, read-out: GI50 DEL19 - T790-C797S/BaF3
[7] = Mus musculus, BaF3, 72 h, BaF3 cells, EGFR L858R - C797S, read-out: GI50 L858R - C797S/BaF3
[8] = Mus musculus, BaF3, 72 h, BaF3 cells, EGFR L858R - T790-C797S, read-out: GI50 L858R - T790-C797S/BaF3
[9] = Mus musculus, BaF3, 72 h, BaF3 cells, EGFR L858R - T790M, read-out: GI50 L858R - T790M/BaF3
[10] = Mus musculus, BaF3, 72 h, BaF3 cells, EGFR L858R, read-out: GI50 L858R/BaF3
[11] = Mus musculus, BaF3, 72 h, EGFR DEL19 - T790M, read-out: GI50 DEL19 - T790M
[12] = EGFR[T790M/C797S/L858R], 1 h at room temperature, read-out: IC50 @T790M- C797S - L858R
[13] = 1 h at room temperature, read-out: IC50 @L858R
[14] = EGFR Exon19Del/T790M, 1 h at room temperature, read-out: IC50 @Del19-T790M
[15] = EGFR (C797S L858R), 1 h at room temperature, read-out: IC50 @L858-C797S
[16] = EGFR wild type, 1 h at room temperature, read-out: IC50 @WT
[17] = EGFR L858R/T790M, 1 h at room temperature, read-out: IC50 @L858R-T790M
[18] = EGFR[T790M/C797S/d746-750], 1 mM ATP, 1 h at room temperature, read-out: IC50 @T790M - C797S - Del19

| IC50 (EGFR (d746-750 C797S); [3]) [nM] | IC50 (EGFR Exon19Del; [4]) [nM] | GI50 [1, 5] [nM] | GI50 [1, 6] [nM] | GI50 [1, 7] [nM] | GI50 [1, 8] [nM] | GI50 [1, 9] [nM] | GI50 [1, 10] [nM] | GI50 [1, 11] [nM] | IC50 (EGFR[T790M/C797S/L858R]; [12]) [nM] | IC50 (EGFR L858R; [13]) [nM] | IC50 (EGFR Exon19Del/T790M; [14]) [nM] | IC50 (EGFR (C797S L858R); [15]) [nM] | IC50 (EGFR wild type; [16]) [nM] | IC50 (EGFR L858R/T790M; [17]) [nM] | GI50 (PC-9; Homo sapiens, PC-9, 72 h) [nM] | GI50 (A-431) [nM] | IC50 [2, 18] [nM] | SMILES | other results |
| --- | --- | --- | --- | --- | --- | --- | --- | --- | --- | --- | --- | --- | --- | --- | --- | --- | --- | --- | --- |
| 0.73 | 1.4 | 0.58 | 0.59 | 3.2 | 0.6 | 0.83 | 2.7 | 0.6 | 1 | 7.4 | 1.3 | 3.3 | 114 | 1.1 | 6.1 | 366 | 1.4 | Cc1cc2cc(n1)-c1cnn(C)c1OCCN1CC3CCC(C3)(C1)n1c(nc3ccc(N4CCN(C)CC4)cc31)NC2=O (stereo not drawn) [Example B9B, 15,21-Dimethyl-5-(4-methylpiperazin-1-yl)-23-oxa-2,9,11,16,20,21,26-heptaazaheptacyclo[24.4.1.1^{1,28}.1^{13,17}.0^{2,10}.0^{3,8}.0^{18,22}]tritriaconta-3,5,7,9,13,15,17(33),18(22),19-nonaen-12-one] | – |
| 3 | 7.5 | – | – | – | – | – | – | – | 2.2 | 34 | 4.9 | 8.8 | 581 | 4.2 | – | 1790 | 3.3 | Cc1cc2cc(n1)-c1cnn(C)c1OCCN1CC3CCC(C3)(C1)n1c(nc3ccc(N4CC[C@H](N(C)C)C4)cc31)NC2=O (single isomer, unassigned) [Example B41B] | GI50 ([1]; BaF3 cells, EGFR DEL19 - C797S, read-out: GI50 DEL19 - C797S/BaF3): 2 nM; GI50 ([1]; BaF3 cells, EGFR DEL19 - T790-C797S, read-out: GI50 DEL19 - T790-C797S/BaF3): 2 nM; GI50 ([1]; BaF3 cells, EGFR L858R - C797S, read-out: GI50 L858R - C797S/BaF3): 7 nM; GI50 ([1]; BaF3 cells, EGFR L858R - T790-C797S, read-out: GI50 L858R - T790-C797S/BaF3): 2 nM; GI50 ([1]; BaF3 cells, EGFR L858R - T790M, read-out: GI50 L858R - T790M/BaF3): 2 nM; GI50 ([1]; BaF3 cells, EGFR L858R, read-out: GI50 L858R/BaF3): 12 nM; GI50 ([1]; EGFR DEL19 - T790M, read-out: GI50 DEL19 - T790M): 2 nM; GI50 (PC-9): 8 nM |
| – | – | 1.5 | 11 | 11 | 6.6 | 15 | 2.1 | 7.3 | – | – | – | – | – | – | 11 | 1070 | – | CN(C)C1CCN(c2ccc3nc4n(c3c2)C23CCC(CC2)CN(CCOc2c(cnn2C)-c2cc(cn(C)c2=O)C(=O)N4)C3)CC1 [Example A119, 5-[4-(dimethylamino)piperidin-1-yl]-15,21-dimethyl-23-oxa-2,9,11,15,20,21,26-heptaazaheptacyclo[26.2.2.1^{1,26}.1^{13,17}.0^{2,10}.0^{3,8}.0^{18,22}]tetratriaconta-3,5,7,9,13,17(34),18(22),19-octaene-12,16-dione] | IC50 (EGFR (d746-750 C797S); EGFR Del19-C797S, 1 h, room temperature, read-out: IC50 (nM) @Del19-C797S): 4.7 nM; IC50 (EGFR Exon19Del; EGFR Del19, 1 mM ATP, 1 h, room temperature): 7.6 nM; IC50 (EGFR[T790M/C797S/L858R]; EGFR T790M-C797S-L858R, 1 h, room temperature, read-out: IC50 (nM) @T790M- C797S - L858R): 9 nM; IC50 (EGFR L858R; 1 h, room temperature, read-out: IC50 (nM) @L858R): 38 nM; IC50 (EGFR Exon19Del/T790M; EGFR Del19-T790M, 1 h, room temperature, read-out: IC50 (nM) @Del19-T790M): 6.6 nM; IC50 (EGFR (C797S L858R); EGFR L858-C797S, 1 h, room temperature, read-out: IC50 (nM) @L858-C797S): 19 nM; IC50 (EGFR wild type; EGFR WT, 1 h, room temperature, read-out: IC50 (nM) @WT): 1060 nM; IC50 (EGFR L858R/T790M; EGFR L858R-T790M, 1 h, room temperature, read-out: IC50 (nM) @L858R-T790M): 32 nM; IC50 ([2]; EGFR T790M-C797S-Del19, 1 mM ATP, 1 h, room temperature, read-out: IC50 (nM) @T790M - C797S - Del19): 3 nM |
